The values that follow come from patent publication US6984729B1, “Oligonucleotides specific for hepatitis B virus” (priority 1995, dated 2006).

Entries after “also recorded” stand apart in the source; their conditions may differ.

The subject of series [1] is replicative intermediate (RI) HBV DNA in HepG2.2.15 cells. In words: Southern hybridization viral assay in HepG2.2.15 cells. The format is cell-based, hepatitis B virus. The conditions noted are these: titrated concentrations, FIGS. 11, 12. An excerpt:
The activity of antisense oligonucleotides was also studied in a viral assay in HepG2.2.15 cells, which have been stably transfected with plasmids carrying whole HBV genomes (Sells et al. (1987) Proc. Nat. Acad. Sci. 84:1005–1009; Sureau et al. (1986) Cell 47:37–47). […] A more definitive test is Southern hybridization, which provides data concerning the character of the detected DNA in addition to quantitation. This assay has been described previously for the screening of anti-HBV compounds on HepG2.2.15 cells (Doong et al. (1991) Proc. Nat. Acad. Sci. (USA) 88:8495–8499). In view of the many potential sources of HBV DNA from transfected cells, this assay allows for a more meaningful interpretation of results than the other methods mentioned.
The cell line HepG2.2.15 (Sells et al. (1988) J. Virol. 62:2836–2844) was routinely cultured in RPMI.1640 medium (Life Technologies Ltd., Paisley, Scotland) supplemented with 10% fetal bovine serum (FBS), 100 U/ml penicillin, and 150 μg/ml streptomycin. Cultures were replaced after 10 passages with cells freshly cultured from a mycoplasma-free frozen stock. Cultures were maintained at 37° C. in a humidified atmosphere of 5% CO2 in air.
Cells were cultured in 6-well plates at 10^6 cells/well in 4 ml medium (RPMI.1640 as above but supplemented with 5% FBS) and maintained as above. […]

The subject of series [2] is internally 32P-labelled HBV precore-core RNA (epsilon region). In words: RNase H cleavage of HBV precore-core RNA with noncontiguous oligonucleotides targeted to the epsilon region. Format: biochemical, hepatitis B virus. The protocol:
To determine whether an oligonucleotide of the invention is capable of successfully hybridizing to its target, an RNase H assay was performed (Frank et al. (1993) Proc. Int. Conf. Nucleic Acid Med. Applns. 1:4.14(abstract)). This assay is useful when a region of at least four contiguous nucleotides of the oligonucleotide is DNA and the target is RNA. Hybridization of the DNA portion of the oligonucleotide to the RNA target is identified by cleavage at that site by RNase H.
Noncontiguous oligonucleotides targeted to the HBV epsilon region have also been prepared and tested. The epsilon region is characterized by an RNA stem-loop structure consisting primarily of double-stranded RNA with a single-stranded bulge and loop of 6 bases each (FIG. 3). […] The ability of RNase H to cleave an RNA in this manner inflicts greater damage on the RNA than normal antisense oligodeoxynucleotides, while allowing the targeting of a biologically important region that is otherwise difficult to target due to its double-stranded nature.
Based on this information, several oligodeoxynucleotide phosphorothioates were prepared to test the hypothesis that hybridization by mode B is preferred when spanning the base of an RNA stem. 20mer and 24mer noncontiguous oligonucleotides (Table 2) were prepared as well as the 10mers and 12mers corresponding to the “arms” of the noncontiguous sequences.
If a single oligodeoxynucleotide were able to bind across the base of epsilon to sequences on either side of the stem, RNase H might cleave both sites and effectively cut out the epsilon stem-loop from the RNA. […] The 12+12 noncontiguous phosphorothioates show the same ability to bind across the base of the RNA stem. […] Double cleavage of the transcript in the presence of the mixture of 12mer arms (HBV71+HBV72) was much slower (FIG. 6B).
When oligonucleotides hybridizing via mode B were lengthened to allow strand invasion of the RNA stem, disruption of the stem-loop structure occurred. Oligonucleotides HBV89 (SEQ ID NO:39), HBV90 (SEQ ID NO:40), and HBV91 (SEQ ID NO:41) bind across the base of epsilon via mode B and strand invade on either the 5 side (HBV89) or the 3′ side (HBV90 and HBV91) of the RNA stem. HBV89M is an extension of HBV64M with ten 2′-O-methyl RNA residues invading the RNA stem on the 5′-side. Addition of these strand invading nucleotides increased the cleavage efficiency from 23% to 32% at 100 nM oligonucleotide.
Uniformally ^32P-labelled RNA was prepared from 1 μg linearized plasmid using the Ambion MEGAscript In Vitro Transcription Kit (Ambion, Inc., Austin, Tex.) according to the manufacturers' instructions, using [α-^32p] CTP as the radioactive label. The RNA was treated with RNase-free DNase I (Ambion, Inc., Austin, Tex.), extracted with phenol:chloroform: isoamyl alcohol (25:24:1) and purified from nucleotides and nucleosides on a G-50 Sephadex spin column (Boehringer-Mannheim, Indianapolis, Ind., or Pharmacia, Uppsala, Sweden).
In 9 μl 1× RNase H buffer (40 mM Tris-HCl pH 7.4, 4 mM MgCl2, 1 mM DTT), 20–100 nM labelled RNA and 100 nM oligonucleotides were preincubated for 15 min at 37° C. 1 μl RNase H (1 U/μl) was added, and the reaction was incubated at 37° C. for 10 min. The reactions were quenched and analyzed as described above.
Quantitation of the cleavage products was performed using software supplied with the Phosphorimager (Molecular Dynamics, Sunnyvale, Calif., or Bio-Rad Laboratories, Hercules, Calif.). “Counts” were determined by drawing a box around the band of interest and subtracting the background determined with a box drawn nearby. Counts in a product band were compared to total counts in the lane above that band to determine % cleavage.

Another series relates to parent pGLori sequence. The experiment in a line: Firefly luciferase reporter gene assay in HepG2 cells stably transfected with parent construct (control). The format is cell-based. The protocol: Oligonucleotides targeted to the polymerase translation initiation region were also tested in mammalian cells using a firefly luciferase reporter gene assay. The 35 nucleotide region spanning the translation start site of the HBV ayw polymerase gene from nt 2294–2328 was cloned 5′ to, and in frame with, the entire open reading frame of the firefly luciferase gene in the plasmid pGLori, to produce the plasmid pGLpol (FIG. 10). Transcription of this pol-luciferase gene fusion was placed under the control of the cytomegalovirus early gene promoter. Expression of the pol-luciferase fusion in mammalian cells was quantified in a luminometer by addition of luciferin substrate and ATP cofactor to cell lysates. In all cellular antisense assays, a random sequence 20mer phosphorothioate oligonucleotide (random 20mer PS) was used as a negative control. […]
Stably transfected HepG2 cells were seeded into 96 well plates. […] Cells were washed twice with Dulbecco's phosphate-buffered saline (PBS) and lysed in 50 μl cell lysis buffer (Analytical Luminescence Laboratory, San Diego, Calif.). Luciferase activity was measured in 20 μl lysate using Analytical Luminescence Laboratory substrates in a MicroLumat LB 96 P luminometer (EG&G Berthold, Nashua, N.H.).
(In general: A reporter such as luciferase makes a cellular process visible.)

Consider “ACCCAAGGCACAGCTTGGAG (phosphorothioate, further chemistry not given here) [HBV6]”, for which the “inhibition of the formation of replicative intermediate (RI) HBV DNA” value in series [1] is reported as “significant inhibition”.

For the substance “AGGCAGAGGTGATATAAGGGTCGA (chemistry not given here) [HBV67]”, the “total RNA cleavage by RNase H” value in series [2] (10+10 and 12+12 noncontiguous oligonucleotides versus mixtures of arms, FIGS. 5A, 6A) is listed as “equal”. The “double cleavage (twice cleaved product) by RNase H on both sides of the epsilon stem” value in series [2] (FIGS. 5B, 6B) is reported as “efficiently activate RNase H cleavage on both sides of the stem after only 1.5 minutes; also recorded: slightly more cleavage than mode A (HBV79)”. For the same substance, in series [1], the “inhibition of the formation of replicative intermediate (RI) HBV DNA” value is on record as “Inhibition was also found”.

In the case of “Luc +1–+20: 20mer phosphorothioate antisense oligonucleotide targeting the first 20 nucleotides of the firefly luciferase coding region, positive control, SEQ ID NO:50 (antisense ATGTTTTTGGCGTCTTCCAT; all phosphorothioate, sugars by position and methylation of C not given here)”, in the series with parent pGLori sequence, the “antisense activity on luciferase expression, parent pGLori” value is “exhibited antisense activity”.
